For one series, the system named is Liver microsome. The experiment in a line: Drug level in human liver microsomes treated with montelukast at 0.02 to 0.4 uM preincubated for 3 mins followed by beta-NADPH addition by LC-MS analysis. It counts as ADME. On the technique in general: Liver microsomes are vesicles of endoplasmic reticulum, rich in cytochrome P450 enzymes.
Series [1] deals with T1, Cytochrome P450 2C8 (Homo sapiens, UniProt P10632).
T1 sequence (P10632 whole entry): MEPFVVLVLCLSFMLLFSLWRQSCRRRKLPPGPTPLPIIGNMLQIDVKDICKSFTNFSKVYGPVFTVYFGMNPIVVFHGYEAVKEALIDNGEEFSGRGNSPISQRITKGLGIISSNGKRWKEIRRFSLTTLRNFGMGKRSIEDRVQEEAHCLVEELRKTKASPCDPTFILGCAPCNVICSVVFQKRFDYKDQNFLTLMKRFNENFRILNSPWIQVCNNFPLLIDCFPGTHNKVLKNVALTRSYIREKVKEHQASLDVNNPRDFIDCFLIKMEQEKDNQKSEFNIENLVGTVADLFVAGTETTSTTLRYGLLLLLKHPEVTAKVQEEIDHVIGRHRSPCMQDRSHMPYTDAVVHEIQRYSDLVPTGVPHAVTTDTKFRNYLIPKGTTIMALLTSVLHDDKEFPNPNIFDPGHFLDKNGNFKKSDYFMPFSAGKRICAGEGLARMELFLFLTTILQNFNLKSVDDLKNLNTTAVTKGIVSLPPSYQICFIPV
The experiment in a line: Activity of recombinant human CYP2C8 expressed in microsomes isolated from baculovirus infected insect cell assessed as enzyme-mediated compound formation treated with montelukast at 0.02 to 1 uM after 60 mins by LC-MS analysis. The note with it: 1 h. It counts as ADME.

In a further series the target is Cytochrome P450 3A4 (Homo sapiens, UniProt P08684). Nature of the series: Activity of recombinant human CYP3A4 expressed in microsomes isolated from baculovirus infected insect cell assessed as enzyme-mediated compound formation treated with montelukast at 1 uM after 60 mins by LC-MS analysis. It is filed as ADME. The note with it: 1 h.
Cytochrome P450 3A4, sequence (P08684 whole entry): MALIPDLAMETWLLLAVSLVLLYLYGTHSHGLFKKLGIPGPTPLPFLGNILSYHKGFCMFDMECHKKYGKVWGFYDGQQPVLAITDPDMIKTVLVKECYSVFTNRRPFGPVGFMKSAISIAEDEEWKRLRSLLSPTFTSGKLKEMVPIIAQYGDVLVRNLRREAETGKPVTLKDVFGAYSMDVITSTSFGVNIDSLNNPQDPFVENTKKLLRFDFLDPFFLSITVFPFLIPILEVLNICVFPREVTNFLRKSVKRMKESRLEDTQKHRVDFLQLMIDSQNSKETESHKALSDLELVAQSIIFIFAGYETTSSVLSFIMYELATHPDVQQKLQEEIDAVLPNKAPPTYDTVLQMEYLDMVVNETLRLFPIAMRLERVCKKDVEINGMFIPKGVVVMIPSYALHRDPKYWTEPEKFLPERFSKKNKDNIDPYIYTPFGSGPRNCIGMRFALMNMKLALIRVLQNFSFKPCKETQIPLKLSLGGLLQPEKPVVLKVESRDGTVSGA
In a further series the target is Cytochrome P450 2C9 (Homo sapiens, UniProt P11712). Nature of the series: Activity of recombinant human CYP2C9 expressed in microsomes isolated from baculovirus infected insect cell assessed as enzyme-mediated compound formation treated with montelukast at 1 uM after 60 mins by LC-MS analysis. It is filed as ADME. The conditions noted are these: 1 h.
A further series addresses Cytochrome P450 2C19 (Homo sapiens, UniProt P33261). Nature of the series: Activity of recombinant human CYP2C19 expressed in microsomes isolated from baculovirus infected insect cell assessed as enzyme-mediated compound formation treated with montelukast at 1 uM after 60 mins by LC-MS analysis. It is filed as ADME. The conditions noted are these: 1 h.
For series [2], the target named is T1, Cytochrome P450 2C8. The experiment in a line: Activity of recombinant human CYP2C8 expressed in microsomes isolated from baculovirus infected insect cell assessed as enzyme-mediated compound formation treated with montelukast at 0.02 to 0.1 uM after 3 mins by LC-MS analysis. It is filed as ADME. The note with it: 0.05 h.
The target in another series is Cytochrome P450 3A5 (Homo sapiens, UniProt P20815). Nature of the series: Activity of recombinant human CYP3A5 expressed in microsomes isolated from baculovirus infected insect cell assessed as enzyme-mediated compound formation treated with montelukast at 1 uM after 60 mins by LC-MS analysis. It counts as ADME. The note with it: 1 h.
Cytochrome P450 3A5, sequence (P20815 whole entry): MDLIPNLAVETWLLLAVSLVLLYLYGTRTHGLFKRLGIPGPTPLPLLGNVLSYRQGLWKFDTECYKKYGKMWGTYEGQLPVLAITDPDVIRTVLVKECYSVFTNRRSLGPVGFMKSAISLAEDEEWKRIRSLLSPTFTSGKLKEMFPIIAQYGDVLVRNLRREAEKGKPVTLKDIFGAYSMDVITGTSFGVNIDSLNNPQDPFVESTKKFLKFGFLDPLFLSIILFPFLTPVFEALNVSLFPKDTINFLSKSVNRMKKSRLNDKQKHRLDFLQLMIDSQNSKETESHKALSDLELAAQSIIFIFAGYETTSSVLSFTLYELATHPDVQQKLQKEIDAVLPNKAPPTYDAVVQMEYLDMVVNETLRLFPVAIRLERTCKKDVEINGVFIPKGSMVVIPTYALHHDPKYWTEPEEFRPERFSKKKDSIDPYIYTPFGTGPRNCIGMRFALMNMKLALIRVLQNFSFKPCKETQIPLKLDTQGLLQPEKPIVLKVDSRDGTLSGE
Series [3] deals with T1, Cytochrome P450 2C8. Nature of the series: Activity of recombinant human CYP2C8 expressed in microsomes isolated from baculovirus infected insect cell assessed as enzyme-mediated compound formation treated with 2-(1-(((1R)-1-(3-(2-(7-chloroquinolin-2-yl)vinyl)phenyl)-3-(2-(1,2-dihydroxypropan-2-yl)phenyl)propylthio)methyl)cyclopropyl)acetic acid at 0.02 uM after 30 mins by LC-MS analysis. The conditions noted are these: 0.5 h. It is filed as ADME.

Substrate in series [4]: CC(C)(O)c1ccccc1CC[C@@H](SCC1(CC(=O)O)CC1)c1cccc(/C=C/c2ccc3ccc(Cl)cc3n2)c1
Nature of the series: cells, lysate or membranes named.

Cytochrome P450 2C19, sequence (P33261 whole entry): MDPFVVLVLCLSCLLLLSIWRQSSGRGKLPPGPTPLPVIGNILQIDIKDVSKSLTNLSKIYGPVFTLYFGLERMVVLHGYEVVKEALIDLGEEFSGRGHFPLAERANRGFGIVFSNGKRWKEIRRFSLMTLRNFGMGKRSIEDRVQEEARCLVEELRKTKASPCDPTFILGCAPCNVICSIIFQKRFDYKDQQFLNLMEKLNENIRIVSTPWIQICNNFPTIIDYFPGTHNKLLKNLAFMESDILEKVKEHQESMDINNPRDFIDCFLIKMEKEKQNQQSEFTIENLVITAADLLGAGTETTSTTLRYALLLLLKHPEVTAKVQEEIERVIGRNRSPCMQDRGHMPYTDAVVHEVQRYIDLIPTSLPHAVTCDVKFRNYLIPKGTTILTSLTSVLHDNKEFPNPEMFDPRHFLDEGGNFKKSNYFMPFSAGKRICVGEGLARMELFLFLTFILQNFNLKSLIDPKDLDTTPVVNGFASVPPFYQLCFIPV

Regarding `CC(C)(O)c1ccccc1CC[C@H](c1cccc(/C=C/c2ccc3ccc(Cl)cc3n2)c1)[S+]([O-])CC1(CC(=O)O)CC1` (stereo not given in full), the Drug metabolism entry in the series on Liver microsome is listed as “metabolite_detected”.
On to `CC(C)(O)c1cc(O)ccc1CC[C@@H](SCC1(CC(=O)O)CC1)c1cccc(/C=C/c2ccc3ccc(Cl)cc3n2)c1`, for which the Drug metabolism entry in the series with Liver microsome, at Cytochrome P450 2C8 [1], at Cytochrome P450 3A4, at Cytochrome P450 2C9, on Cytochrome P450 2C19 and at Cytochrome P450 2C8 [2] was “metabolite_detected” throughout. Also, the Drug metabolism entry at Cytochrome P450 3A5 is recorded as “metabolite_detected”.
Consider `CC(O)(C(=O)O)c1ccccc1CC[C@@H](SCC1(CC(=O)O)CC1)c1cccc(/C=C/c2ccc3ccc(Cl)cc3n2)c1` (stereo not given in full), for which the Drug metabolism entry in the series with Liver microsome and at Cytochrome P450 2C8 [3] was “metabolite_detected” each time.
Regarding `CC(C)(O)c1ccccc1C(O)C[C@@H](SCC1(CC(=O)O)CC1)c1cccc(/C=C/c2ccc3ccc(Cl)cc3n2)c1` (stereo not given in full), the Drug metabolism entry in the series with Liver microsome, on Cytochrome P450 3A4 and at Cytochrome P450 3A5 was “metabolite_detected” throughout.

B1: Cytochrome P450 2C9 (Homo sapiens) (protein)
chain: MDSLVVLVLCLSCLLLLSLWRQSSGRGKLPPGPTPLPVIGNILQIGIKDISKSLTNLSKVYGPVFTLYFGLKPIVVLHGYEAVKEALIDLGEEFSGRGIFPLAERANRGFGIVFSNGKKWKEIRRFSLMTLRNFGMGKRSIEDRVQEEARCLVEELRKTKASPCDPTFILGCAPCNVICSIIFHKRFDYKDQQFLNLMEKLNENIKILSSPWIQICNNFSPIIDYFPGTHNKLLKNVAFMKSYILEKVKEHQESMDMNNPQDFIDCFLMKMEKEKHNQPSEFTIESLENTAVDLFGAGTETTSTTLRYALLLLLKHPEVTAKVQEEIERVIGRNRSPCMQDRSHMPYTDAVVHEVQRYIDLLPTSLPHAVTCDIKFRNYLIPKGTTILISLTSVLHDNKEFPNPEMFDPHHFLDEGGNFKKSKYFMPFSAGKRICVGEALAGMELFLFLTSILQNFNLKSLVDPKNLDTTPVVNGFASVPPFYQLCFIPV
On to B1, for which, in series [4], the Km was determined as 0.19 µM and the maximum rate (Vmax) was determined as 1.1e-07 µmol/min.

By Km is commonly meant the substrate concentration at which the rate is half of its maximum. Broadly, the Vmax is the top rate of the reaction or transport when substrate is in excess.

The values above are taken from ChEMBL document CHEMBL3525951, “Reevaluation of the microsomal metabolism of montelukast: major contribution by CYP2C8 at clinically relevant concentrations” (Drug Metab Dispos, 2011).
